Literature values, collected in patent US9988396B2, “Oxaziridine compound and production method thereof” (SEED RESEARCH INSTITUTE CO., LTD., priority 2016, dated 2018).

Legend:
[1] = system: PANC-1 pancreas cancer cell
[2] = system: HepG2 liver cancer cell
[3] = system: pathogens of candidiasis; details: statement in background, from patent document 1 (WO2015/030197)

CC=C(Cc1ccccc1)C12CC(O)CCN1O2 (stereo not drawn) [Kakeromycin]
cytotoxicity [1]: shows cytotoxicity
cytotoxicity [2]: shows cytotoxicity
antifungal activity / antibacterial activity against pathogens of candidiasis [3]: strong antibacterial activity
